Laboratory results: article PMC8742467, “Therapeutical interference with the epigenetic landscape of germ cell tumors: a comparative drug study and new mechanistical insights” (Clinical Epigenetics, 2022)

How the values were obtained:
[1] = tested on: phosphorylated kinase targets in 2102EP cells; assay: Proteome Profiler Human Phospho-Kinase Array; assay type: cell-based; conditions: 16 h
Description: For the detection of phosphorylated kinase targets, the Proteome Profiler Human Phospho-Kinase Array Kit (R&D Systems, Abingdon, UK) was used according to the manufacturer’s instructions. The ChemiDoc Imaging System (Bio-Rad Laboratories, Feldkirchen, Germany) was used for detection. 2102EP cells were harvested after 16 h of treatment with the epi-drugs. Pixel density was analyzed using Fiji ImageJ 1.53c.

[2] = tested on: transcriptome of 2102EP cells; assay: RNA sequencing; assay type: cell-based, Human; conditions: 16 h
Description: Transcriptome analysis has been performed as previously described at the core facility ‘Genomics & Transcriptomics’ (Prof. Dr. Karl Köhrer, Biomedical Research Center, Heinrich Heine University, Düsseldorf, Germany) and has been publicly shared via GEO (https://www.ncbi.nlm.nih.gov/geo/, GSE189472). RNA samples were quantified and measured as previously described. Statistical analyses were performed using the ‘Differential Expression in two groups’ tool (version 1.02) (Qiagen) and the resulting p values were corrected for multiple testing by false discovery rate (FDR). Accompanying PCA and heatmap were generated using Qlucore Omics Explorer 3.7 (Qlucore AB, Lund, Sweden). Values of solvent controls wereaveraged from the studies GSE189472, GSE190792 and GSE190022 [95].

GCT cell lines = assay: XTT cell viability assay, GCT cell lines (pre-screen / summary); assay type: cell-based, Human; conditions: first pre-screen, XTT; read-out: EC50
Description: The […] (XTT) assays were performed as described previously. In summary, for GCT and fibroblast cell lines 5 × 10^3 cells (3 × 10^3 for UC, PCa and RCC cell lines) per 96-well were seeded and different drug concentrations (see Additional file 2: Fig. S2, Additional file 3: Fig. S3) or corresponding solvents were added to the cells the following day. For drug details see Additional file 12: Table S2 C. Each condition was analyzed in four technical replicates and EC50 values were calculated by GraphPad Prism v8.

CC (JAR) = assay: Flow cytometry apoptosis (Annexin V/PI), CC; assay type: cell-based, Human; conditions: EC50, 16 h
Description: (§1) For Annexin V/PI staining, cells were washed with Annexin V Binding Buffer before being resuspended in 70 µl Annexin V Binding Buffer and 2.5 μl Annexin V FITC-conjugate (both Miltenyi Biotec, Bergisch Gladbach, Germany) and 15 µg PI (Sigma-Aldrich, Taufkirchen, Germany) and incubated in the dark at room temperature for 15 min. 500 µl of Annexin V Binding Buffer was added before measurement. For the cell cycle analysis, cells were washed with PBS (phosphate buffered saline), fixed by ice cold 70% ethanol and stained with 2 µg/ml PI and 200 µg/ml RNaseA (Quiagen, Hilden, Germany 100 mg/ml) in PBS shortly before every measurement. At least 5 × 10^4 cells were counted and analyzed using the MACSQuant software v 2.13.0.

YST (GCT72) = assay: Flow cytometry apoptosis (Annexin V/PI), YST; assay type: cell-based, Human; conditions: EC50, 16 h
Description: as §1

[3] = tested on: histone modifications in 2102EP cells; assay: Mass spectrometry analysis of histone modifications (Mod Spec); assay type: cell-based, Human; conditions: 2102EP cells; Mod Spec raw data
Description: 2102EP cells were treated with the EC50 concentrations for Quisinostat, JIB-04, Chaetocin, MZ-1, LP99, PRT4165, GSK343 and DMSO as solvent control. The cells were harvested via trypsinization after 16 h. The mass spectrometric analysis of histone modifications was outsourced to the Mod Spec service by Active Motif (Carlsbad, CA, USA). Histone extraction and mass spectrometric analysis was performed as described previously. Raw data were transformed into z-scores as the input. The heatmap was generated in R using ‘pheatmap’ with default settings and provided by Active Motif.

[4] = sorted data log2>±1.5, FDR p<0.05

Cc1cc(=O)n(C)c2cc(N3C(=O)CC[C@H](NS(=O)(=O)CC(C)C)[C@H]3c3ccc(Cl)cc3)ccc12 [LP99]
CREB, STAT3 and STAT5 phosphorylation and total levels of β-Catenin and HSP60 [1]: decreased
ERK1/2 phosphorylation [1]: decreased
GJD3 Log2 fold change vs. DMSO [2, 4]: 3.31
GLIPR1L1 Log2 fold change vs. DMSO [2, 4]: -3.59
GOLGA6A Log2 fold change vs. DMSO [2, 4]: -4.35
MTRNR2L8 Log2 fold change vs. DMSO [2, 4]: 3.16
NCKAP1L Log2 fold change vs. DMSO [2, 4]: -3.90
TAC1 Log2 fold change vs. DMSO [2, 4]: 3.33
A1BG Log2 fold change vs. DMSO ([2]; unsorted data): 0.41
A1CF Log2 fold change vs. DMSO ([2]; unsorted data): 1.13
A2M Log2 fold change vs. DMSO ([2]; unsorted data): -0.80
EC50 (GCT cell lines): ≤ 50 µM
apoptosis induction in JAR (CC (JAR)): negligible
apoptosis induction in GCT72 (YST (GCT72)): negligible
H1.4: K25AC, % of peptide pool [3]: 0.009028%
H1.4: K25ME1, % of peptide pool [3]: 2.269%
H1.4: K25ME2, % of peptide pool [3]: 0.02267%
H1.4: K25ME3, % of peptide pool [3]: 0.00557%
H1.4: K25UN, % of peptide pool [3]: 97.6933%
H2A1: K13AC, % of peptide pool [3]: 0.01093%
H2A1: K13UN, % of peptide pool [3]: 99.9891%
H2A1: K15AC, % of peptide pool [3]: 0.001748%
H2A1: K15UB, % of peptide pool [3]: 0%
H2A1: K15UN, % of peptide pool [3]: 99.9983%
H2A3: K13AC, % of peptide pool [3]: 0.03196%
H2A3: K13UN, % of peptide pool [3]: 99.968%
H2A3: K15AC, % of peptide pool [3]: 0.03362%
H2A3: K15UB, % of peptide pool [3]: 0%
H2A3: K15UN, % of peptide pool [3]: 99.9664%
H2A: K5AC, % of peptide pool [3]: 12.5375%
H2A: K5UN, % of peptide pool [3]: 87.4625%
H2A: K9AC, % of peptide pool [3]: 1.353%
H2A: K9UN, % of peptide pool [3]: 98.6475%
H2A: K36AC, % of peptide pool [3]: 0.0347%
H2A: K36UN, % of peptide pool [3]: 99.9653%
H3: K9AC, % of peptide pool [3]: 0.6876%
H3: K9ME1, % of peptide pool [3]: 38.1257%
H3: K9ME2, % of peptide pool [3]: 23.7135%
H3: K9ME3, % of peptide pool [3]: 2.367%
H3: K9UN, % of peptide pool [3]: 35.1066%
H3: K14AC, % of peptide pool [3]: 29.2531%
H3: K14UN, % of peptide pool [3]: 70.7469%
H3: K18AC, % of peptide pool [3]: 10.1375%
H3: K18ME1, % of peptide pool [3]: 0.2014%
H3: K18UN, % of peptide pool [3]: 89.6611%
H3: K23AC, % of peptide pool [3]: 16.6835%
H3: K23ME1, % of peptide pool [3]: 0.02213%
H3: K23UN, % of peptide pool [3]: 83.2943%
H3: K56AC, % of peptide pool [3]: 0.1265%
H3: K56ME1, % of peptide pool [3]: 0.3038%
H3: K56UN, % of peptide pool [3]: 99.5697%
H3: K64AC, % of peptide pool [3]: 0.01464%
H3: K64UN, % of peptide pool [3]: 99.9854%
H3: K79AC, % of peptide pool [3]: 0.6828%
H3: K79ME1, % of peptide pool [3]: 14.7289%
H3: K79ME2, % of peptide pool [3]: 6.113%
